Here are results for 13 compounds from ChEMBL document CHEMBL1135083, “A designed P1 cysteine mimetic for covalent and non-covalent inhibitors of HCV NS3 protease” (Bioorg Med Chem Lett, 2002).

pKi: −log10 of the molar value. Numbered stars: 1 amine (or outer) side, 2 acyl side, 3 side chain; on linkers, the order of the positions; unused ones are H or OH. Square brackets hold non-standard residues; d marks the D form. Peptide text beside a SMILES is read from it. * marks the point of attachment. Dip = N[C@H](C(=O)O)C(c1ccccc1)c1ccccc1; X4 = O=C(C(=O)[*:2])[C@H](CC(F)F)N[*:1]; X3 = O=C(c1nc2ccccc2s1)[C@H](CC(F)F)N*; X6 = O=C(c1nc2ccccc2o1)[C@H](CC(F)F)N*; Abu(4,4-F2) = N[C@@H](CC(F)F)C(=O)O; X5 = O=C([C@@H](CC(F)F)N[*:1])[*:2]; X1 = O=C(c1nccs1)[C@H](CC(F)F)N*; X2 = COC(=O)C(=O)[C@H](CC(F)F)N*; X7 = O=C(O)C(=O)[C@H](CC(F)F)N*; Cha = N[C@@H](CC1CCCCC1)C(=O)O; AllylGly = C=CC[C@H](N)C(=O)O; Abu = CC[C@H](N)C(=O)O; NHBn = c1ccc(CN*)cc1

Chain of Hepatitis C virus serine protease, NS3/NS4A (D2K2A8 whole entry): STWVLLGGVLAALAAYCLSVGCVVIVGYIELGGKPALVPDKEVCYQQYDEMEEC
Chain of Hepatitis C virus serine protease, NS3/NS4A (A3EZI9 whole entry): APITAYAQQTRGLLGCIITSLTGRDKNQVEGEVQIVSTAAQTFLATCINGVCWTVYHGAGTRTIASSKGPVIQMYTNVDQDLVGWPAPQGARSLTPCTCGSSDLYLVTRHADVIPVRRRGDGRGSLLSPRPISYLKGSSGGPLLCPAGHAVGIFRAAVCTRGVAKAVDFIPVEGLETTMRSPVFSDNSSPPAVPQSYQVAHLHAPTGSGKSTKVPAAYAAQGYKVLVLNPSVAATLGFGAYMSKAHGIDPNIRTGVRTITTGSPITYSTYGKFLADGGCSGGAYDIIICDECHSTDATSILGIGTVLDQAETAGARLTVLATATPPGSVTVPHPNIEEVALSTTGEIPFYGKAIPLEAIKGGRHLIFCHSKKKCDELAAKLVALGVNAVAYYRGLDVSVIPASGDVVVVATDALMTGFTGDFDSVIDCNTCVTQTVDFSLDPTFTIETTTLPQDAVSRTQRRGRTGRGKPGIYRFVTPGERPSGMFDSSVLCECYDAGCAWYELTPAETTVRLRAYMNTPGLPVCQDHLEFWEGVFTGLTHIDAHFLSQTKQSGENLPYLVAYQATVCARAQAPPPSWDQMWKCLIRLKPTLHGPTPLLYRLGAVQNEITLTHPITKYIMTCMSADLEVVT

The assay has as its target Hepatitis C virus serine protease, NS3/NS4A (Hepatitis C virus, UniProt A3EZI9+D2K2A8). As to the kind of experiment: Inhibition of hepatitis C virus (HCV) NS3/NS4A serine protease. In kind it is protein-complex assay, Hepacivirus hominis.
For orientation: pKi means the Ki on a negative log10 scale, so that one unit is a factor of ten. A low value points to a large Ki. `CC(=O)N[C@@H](CC(=O)O)C(=O)N[C@@H](CCC(=O)O)C(=O)N[C@H](C(=O)N[C@@H](CCC(=O)O)C(=O)N[C@@H](CC1CCCCC1)C(=O)N[C@@H](CC(F)F)C(=O)c1nccs1)C(c1ccccc1)c1ccccc1` (Ac-DE[Dip]E[Cha]-X1) gave a pKi of 5.82. Take `COC(=O)C(=O)[C@H](CC(F)F)NC(=O)[C@H](CC1CCCCC1)NC(=O)[C@H](CCC(=O)O)NC(=O)[C@@H](NC(=O)[C@H](CCC(=O)O)NC(=O)[C@H](CC(=O)O)NC(C)=O)C(c1ccccc1)c1ccccc1` (Ac-DE[Dip]E[Cha]-X2): the negative logarithm of the Ki (pKi) was 8.70. Next, `CC(=O)N[C@@H](CC(=O)O)C(=O)N[C@@H](CCC(=O)O)C(=O)N[C@H](C(=O)N[C@@H](CCC(=O)O)C(=O)N[C@@H](CC1CCCCC1)C(=O)N[C@@H](CC(F)F)C(=O)c1nc2ccccc2s1)C(c1ccccc1)c1ccccc1` (Ac-DE[Dip]E[Cha]-X3): 6.82. The result for `CC(=O)N[C@@H](CC(=O)O)C(=O)N[C@@H](CCC(=O)O)C(=O)N[C@H](C(=O)N[C@@H](CCC(=O)O)C(=O)N[C@@H](CC1CCCCC1)C(=O)N[C@@H](CC(F)F)C(=O)c1nc2ccccc2o1)C(c1ccccc1)c1ccccc1` (Ac-DE[Dip]E[Cha]-X6) reads 6.22. `CC(=O)N[C@@H](CC(=O)O)C(=O)N[C@@H](CCC(=O)O)C(=O)N[C@H](C(=O)N[C@@H](CCC(=O)O)C(=O)N[C@@H](CC1CCCCC1)C(=O)N[C@@H](CC(F)F)C(=O)C(=O)O)C(c1ccccc1)c1ccccc1` (Ac-DE[Dip]E[Cha]-X7) gave a negative-log Ki (pKi) of 11.00. This pKi lies 4.78 log units higher than the previous one. The result for `CC(=O)N[C@@H](CC(=O)O)C(=O)N[C@@H](CCC(=O)O)C(=O)N[C@H](C(=O)N[C@@H](CCC(=O)O)C(=O)N[C@@H](CC1CCCCC1)C(=O)N[C@@H](CS)C(=O)O)C(c1ccccc1)c1ccccc1` (Ac-DE[Dip]E[Cha]C-OH) reads 7.40; that for `CC(=O)N[C@@H](CC(=O)O)C(=O)N[C@@H](CCC(=O)O)C(=O)N[C@H](C(=O)N[C@@H](CCC(=O)O)C(=O)N[C@@H](CC1CCCCC1)C(=O)N[C@@H](CC(F)F)C(=O)O)C(c1ccccc1)c1ccccc1` (Ac-DE[Dip]E[Cha][Abu(4,4-F2)]-OH), 7.52; that for `CC(=O)N[C@@H](CC(=O)O)C(=O)N[C@@H](CCC(=O)O)C(=O)N[C@H](C(=O)N[C@@H](CCC(=O)O)C(=O)N[C@@H](CC1CCCCC1)C(=O)N[C@H](C=O)CC(F)F)C(c1ccccc1)c1ccccc1` (Ac-DE[Dip]E[Cha][Abu(4,4-F2)]-aldehyde), 9.30. The result for `CC[C@H](NC(=O)[C@H](CC1CCCCC1)NC(=O)[C@H](CCC(=O)O)NC(=O)[C@@H](NC(=O)[C@H](CCC(=O)O)NC(=O)[C@H](CC(=O)O)NC(C)=O)C(c1ccccc1)c1ccccc1)C(=O)O` (Ac-DE[Dip]E[Cha][Abu]-OH) reads 6.15; that for `C=CC[C@H](NC(=O)[C@H](CC1CCCCC1)NC(=O)[C@H](CCC(=O)O)NC(=O)[C@@H](NC(=O)[C@H](CCC(=O)O)NC(=O)[C@H](CC(=O)O)NC(C)=O)C(c1ccccc1)c1ccccc1)C(=O)O` (Ac-DE[Dip]E[Cha][AllylGly]-OH), 7.00. In turn, `C=CC[C@@H](C=O)NC(=O)[C@H](CC1CCCCC1)NC(=O)[C@H](CCC(=O)O)NC(=O)[C@@H](NC(=O)[C@H](CCC(=O)O)NC(=O)[C@H](CC(=O)O)NC(C)=O)C(c1ccccc1)c1ccccc1` (Ac-DE[Dip]E[Cha][AllylGly]-aldehyde) gave a negative-log Ki (pKi) of 8.15. This pKi lies 1.15 log units higher than the previous one. Next, `CC(=O)N[C@@H](CC(=O)O)C(=O)N[C@@H](CCC(=O)O)C(=O)N[C@H](C(=O)N[C@@H](CCC(=O)O)C(=O)N[C@@H](CC1CCCCC1)C(=O)N[C@@H](CC(F)F)C(=O)C(=O)NCc1ccccc1)C(c1ccccc1)c1ccccc1` (Ac-DE[Dip]E[Cha][X4]-NHBn): 8.82; `CC(=O)N[C@@H](CC(=O)O)C(=O)N[C@@H](CCC(=O)O)C(=O)N[C@H](C(=O)N[C@@H](CCC(=O)O)C(=O)N[C@@H](CC1CCCCC1)C(=O)N[C@H](CC(F)F)C(=O)O)C(c1ccccc1)c1ccccc1` (Ac-DE[Dip]E[Cha][X5]-OH): 6.19.
